In paper PMC5770336, “Characterisation of endogenous A2A and A2B receptor-mediated cyclic AMP responses in HEK 293 cells using the GloSensor™ biosensor: Evidence for an allosteric mechanism of action for the A2B-selective antagonist PSB 603” (Biochemical Pharmacology, 2018):
“And” between values parts separate entries of the source, which are not always exact repeats. Identical values can stand only once. “Also recorded” adds a separate entry of the source. Like-named read-outs stand apart in the source and are kept apart here.

Tests used:
[1] = target: T1, A2BAR (Homo sapiens, UniProt P29275); test: GloSensor cAMP luminescence assay in HEK293G cells, endogenous A2BAR-mediated responses (NECA, adenosine, BAY 60-6583); assay type: cell-based; settings: for antagonism of the response to BAY 60-6583 (in words): 1 μM BAY 60-6583; for mode of antagonism (in words): agonist concentration-response curves with increasing antagonist; for IC50 / pIC50 / inhibition of the response to 10 µM NECA (in words): 30 min pre-incubation; for -Log KB / Kb: apparent KB, modified Gaddum equation; for inhibition of the response to 10 µM NECA (in words): antagonist up to 10 µM
T1 construct: Gs-coupled A2BARs endogenously expressed in HEK293 cells; host or cells: HEK293G (HEK293 stably expressing the GloSensor 20F cAMP biosensor)
T1 sequence (P29275 1-332): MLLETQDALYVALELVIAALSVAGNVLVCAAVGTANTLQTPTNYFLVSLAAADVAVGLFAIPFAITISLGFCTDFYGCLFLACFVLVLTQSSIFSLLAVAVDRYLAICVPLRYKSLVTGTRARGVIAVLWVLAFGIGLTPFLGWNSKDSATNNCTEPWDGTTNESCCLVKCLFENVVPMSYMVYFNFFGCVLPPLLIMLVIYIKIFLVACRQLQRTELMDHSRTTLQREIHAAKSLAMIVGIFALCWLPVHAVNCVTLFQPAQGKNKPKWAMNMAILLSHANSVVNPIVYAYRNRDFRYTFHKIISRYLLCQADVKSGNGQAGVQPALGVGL
Protocol: (§1) The cAMP GloSensor™ (20F) biosensor [26] expressed in HEK293 (HEK293G) cells was obtained from Promega (Madison, WI). HEK293G cells were maintained in Dulbecco modified eagles medium (DMEM) supplemented with 2 mM L-glutamine, 10% FCS (fetal calf serum) and 200 μg/ml hygromycin B at 37 °C 5% CO2. […] For the GloSensor™ assay, cells were re-suspended in DMEM supplemented with 2 mM L-glutamine and 10% FCS and seeded at a density of 35000 cells/well on poly-l-lysine treated clear bottomed white walled 96 well plates. Cells were incubated at 37°C 5% CO2 overnight prior to assay.
(§2) The GloSensor™ assay was carried out as per manufacturer’s instructions (Promega, Madison, WI, USA). […] Agonist concentration response curves were simultaneously obtained (in the absence of antagonist).

[2] = target: T2, A2AAR (Homo sapiens, UniProt P29274); test: GloSensor cAMP luminescence assay in HEK293G cells, endogenous A2AAR-mediated responses (CGS 21680); assay type: cell-based
T2 construct: We also provide evidence for a minor population of endogenous A2AAR in this cell line; host or cells: HEK293G (HEK293 stably expressing the GloSensor 20F cAMP biosensor)
T2 sequence (P29274 whole entry): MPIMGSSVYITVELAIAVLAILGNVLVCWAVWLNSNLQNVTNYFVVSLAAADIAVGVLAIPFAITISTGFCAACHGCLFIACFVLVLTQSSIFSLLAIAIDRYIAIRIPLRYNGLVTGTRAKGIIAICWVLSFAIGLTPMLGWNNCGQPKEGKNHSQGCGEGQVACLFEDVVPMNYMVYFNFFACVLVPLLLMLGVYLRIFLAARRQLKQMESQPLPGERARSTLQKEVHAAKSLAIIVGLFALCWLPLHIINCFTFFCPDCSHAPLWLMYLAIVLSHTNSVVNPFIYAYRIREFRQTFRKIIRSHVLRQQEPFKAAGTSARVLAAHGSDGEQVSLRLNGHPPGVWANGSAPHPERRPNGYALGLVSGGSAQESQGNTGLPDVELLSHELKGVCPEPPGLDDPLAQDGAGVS
Protocol: as §1, §2

[3] = test system: adenylyl cyclase; test: Forskolin-stimulated GloSensor cAMP luminescence in HEK293G cells; assay type: cell-based, human; settings: forskolin concentration-response curves, PSB 603 up to 300 nM
Protocol: The cAMP GloSensor™ (20F) biosensor [26] expressed in HEK293 (HEK293G) cells was obtained from Promega (Madison, WI). HEK293G cells were maintained in Dulbecco modified eagles medium (DMEM) supplemented with 2 mM L-glutamine, 10% FCS (fetal calf serum) and 200 μg/ml hygromycin B at 37 °C 5% CO2. Once confluent, cells were dislodged from the flask surface by gentle shaking after incubation in 0.25% trypsin and cell pellet formed following 5 min 1000 g centrifugation. For the GloSensor™ assay, cells were re-suspended in DMEM supplemented with 2 mM L-glutamine and 10% FCS and seeded at a density of 35000 cells/well on poly-l-lysine treated clear bottomed white walled 96 well plates. Cells were incubated at 37°C 5% CO2 overnight prior to assay.
The GloSensor™ assay was carried out as per manufacturer’s instructions (Promega, Madison, WI, USA).

[4] = target: A2AAR; settings: cited from earlier work
[5] = target: A2BAR; settings: cited from earlier work
[6] = antagonism of BAY 60-6583 (1 µM) response, HEK293G
[7] = antagonism of NECA (10 µM) response, HEK293G
[8] = antagonism of adenosine (10 µM) response, HEK293G

N#Cc1c(N)nc(SCC(N)=O)c(C#N)c1-c1ccc(OCC2CC2)cc1 [BAY 60-6583, 2-[[6-Amino-3,5-dicyano-4-[4-(cyclopropylmethoxy)phenyl]-2-pyridinyl]thio]-acetamide]
EC50 ([1]; BAY 60-6583 pEC50, PSB 603 0 nM): 407 nM
EC50 ([1]; BAY 60-6583 pEC50, PSB 603 30 nM): 1580 nM
EC50 ([1]; BAY 60-6583 pEC50, PSB 603 100 nM): 4570 nM
EC50 ([1]; BAY 60-6583 pEC50, PSB 603 300 nM): > 30000 nM
EC50 ([1]; BAY 60-6583 pEC50, XAC 0 nM): 380 nM
EC50 ([1]; BAY 60-6583 pEC50, XAC 100 nM): 1320 nM
EC50 ([1]; BAY 60-6583 pEC50, XAC 300 nM): 2240 nM
EC50 ([1]; BAY 60-6583 pEC50, XAC 1000 nM): 9330 nM
EC50 ([1]; BAY 60-6583 pEC50, ZM 241385 0 nM): 347 nM
EC50 ([1]; BAY 60-6583 pEC50, ZM 241385 100 nM): 1410 nM
EC50 ([1]; BAY 60-6583 pEC50, ZM 241385 300 nM): 2140 nM
EC50 ([1]; BAY 60-6583 pEC50, ZM 241385 1000 nM): 7240 nM
Emax at 0.03 µM ([1]; HEK293G, read-out: BAY 60-6583 Emax, PSB 603 30 nM, percentage of response to 10 µM BAY 60-6583): 82.2 ± 1.64%
Emax at 0.1 µM ([1]; HEK293G, read-out: BAY 60-6583 Emax, PSB 603 100 nM, percentage of response to 10 µM BAY 60-6583): 68.7 ± 6.78%
Emax at 0.3 µM ([1]; HEK293G, read-out: BAY 60-6583 Emax, PSB 603 300 nM, percentage of response to 10 µM BAY 60-6583): 99.3 ± 26.6%
Emax ([1]; HEK293G, read-out: BAY 60-6583 Emax, XAC 0 nM, percentage of response to 10 μM BAY 60-6583): 104 ± 5.27%
Emax ([1]; HEK293G, read-out: BAY 60-6583 Emax, XAC 100 nM, percentage of response to 10 μM BAY 60-6583): 96.6 ± 4.8%
Emax ([1]; HEK293G, read-out: BAY 60-6583 Emax, XAC 300 nM, percentage of response to 10 μM BAY 60-6583): 85.6 ± 5.04%
Emax ([1]; HEK293G, read-out: BAY 60-6583 Emax, XAC 1000 nM, percentage of response to 10 μM BAY 60-6583): 55.9 ± 7.86%
Emax at 0.1 µM ([1]; HEK293G, read-out: BAY 60-6583 Emax, ZM 241385 100 nM, percentage of response to 10 μM BAY 60-6583): 99 ± 7.14%
Emax at 0.3 µM ([1]; HEK293G, read-out: BAY 60-6583 Emax, ZM 241385 300 nM, percentage of response to 10 μM BAY 60-6583): 80.8 ± 8.36%
Emax at 1 µM ([1]; HEK293G, read-out: BAY 60-6583 Emax, ZM 241385 1000 nM, percentage of response to 10 μM BAY 60-6583): 54.1 ± 8.41%
BAY 60-6583 Emax ([1]; PSB 603 0 nM, percentage of response to 10 µM BAY 60-6583): 104.40 ± 5.14%
BAY 60-6583 Emax ([1]; ZM 241385 0 nM, percentage of response to 10 μM BAY 60-6583): 100.80 ± 4.61%
EC50 ([1]; agonist pEC50, cAMP Glosensor luminescence, peak luminescence, HEK 293 cells, no antagonist (Fig. 4)): 646 nM
agonist efficacy (in words) ([1]; relative to adenosine and NECA, HEK293G): partial agonist

CCCn1c(=O)[nH]c2nc(-c3ccc(S(=O)(=O)N4CCN(c5ccc(Cl)cc5)CC4)cc3)[nH]c2c1=O [PSB 603]
antagonism of the response to BAY 60-6583 (in words) [1]: completely abolish the response
maximal inhibition of the NECA response ([1]; 10 µM NECA, % of the maximal response to NECA): 81.7 ± 2.4% and 80%
inhibition of the response to 10 µM adenosine ([1]; 10 µM antagonist): 80.5 ± 3.0% and 80%
mode of antagonism (in words) [1]: non-competitive antagonism
IC50 [1, 6]: 17.4 nM
pIC50 [1, 6]: 7.86 ± 0.13
IC50 [1, 7]: 49.8 nM
pIC50 [1, 7]: 7.53 ± 0.22
IC50 [1, 8]: 141 nM
pIC50 [1, 8]: 7.56 ± 0.43
-Log KB ([1]; agonist BAY 60-6583 (1 µM)): 8.55 ± 0.13
Kb ([1]; agonist BAY 60-6583 (1 µM)): 3.6 nM
-Log KB ([1]; agonist NECA (10 µM)): 8.50 ± 0.22
Kb ([1]; agonist NECA (10 µM)): 5.3 nM
-Log KB ([1]; agonist adenosine (10 µM)): 7.89 ± 0.43
Kb ([1]; agonist adenosine (10 µM)): 66.3 nM
residual peak response to NECA ([1]; limiting level of antagonism, kinetic profile, 10 μM NECA): circa 20%
antagonism of the CGS 21680 response (in words) ([2]; 1 μM CGS 21680, competition curves): unable to inhibit; also recorded: not affected
effect of pre-incubation on CGS 21680 concentration-response curves (in words) ([2]; PSB 603 up to 300 nM): did not affect; also recorded: completely unaffected
effect of pre-incubation on the response to forskolin (in words) [3]: did not affect; also recorded: completely unaffected
Ki [4]: > 10000 nM
Ki [5]: 0.5 nM

Nc1nc2c(cnn2CCc2ccccc2)c2nc(-c3ccco3)nn12 [SCH 58261, 2-(2-Furanyl)-7-(2-phenylethyl)-7H-pyrazolo [4,3-e][1,2,4] triazolo[1,5-c]pyrimidin-5-amine]
antagonism of the response to BAY 60-6583 (in words) [1]: weak antagonist
inhibition of the response to 10 µM NECA (in words) [1]: failed to inhibit
inhibition of the adenosine response ([1]; highest concentration tested, not statistically significant): approximately 35%
antagonism of the CGS 21680 response (in words) [2]: complete concentration-dependent antagonism
Ki [5]: 5010 nM

Nc1nc(NCCc2ccc(O)cc2)nc2nc(-c3ccco3)nn12 [ZM 241385, 4-(2-[7-Amino-2-(2-furyl)[1,2,4]triazolo[2,3-a][1,3,5]triazin-5-ylamino]ethyl)phenol]
inhibition of the response to 10 µM NECA (in words) [1]: complete inhibition
mode of antagonism (in words) [1]: competitive interaction
